Legend:
ECHCG [1] = assay: Pre-emergence herbicidal action against ECHCG; format: in vivo, Echinochloa crus-galli; details: 80 g/ha; for pest or weed control at 80 g/ha: Echinochloa crus-galli, 504 h
In short: (§1)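 Visual rating at 3 weeks vs untreated pots; 0–100% scale, 100% = plants died. Treatment: aqueous WP/EC spray onto covering soil, 600–800 l/ha, 0.2% wetter, seeds in sandy loam.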

ABUTH [2] = assay: Pre-emergence herbicidal action against ABUTH; format: in vivo, Abutilon theophrasti; details: for pest or weed control at 80 g/ha / pest or weed control at 20 g/ha: Abutilon theophrasti, 504 h; for pest or weed control at 20 g/ha: read-out: Pre-emergence action against ABUTH (herbicidal activity in percent)
In short: as §1

AMARE [3] = assay: Post-emergence herbicidal action against AMARE; format: in vivo, Amaranthus retroflexus; details: 20 g/ha, visual assessment about 3 weeks after treatment, 100% = plants have died, 0% = like control plants
In short: (§2)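 Weeds in sandy loam soil received a post-emergence spray at the one-leaf stage. Compounds were applied as WP or EC in water, 600 to 800 l/ha, with 0.2% wetting agent. Activity in % was judged visually after roughly 3 weeks against untreated plants.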

AVEFA = assay: Pre-emergence herbicidal action against AVEFA; format: in vivo, Avena fatua; details: 80 g/ha, pre-emergence
In short: as §1

MATIN [4] = assay: Pre-emergence herbicidal action against MATIN; format: in vivo, Matricaria inodora; details: for pest or weed control at 20 g/ha / pest or weed control at 80 g/ha: Tripleurospermum inodorum, 504 h
In short: as §1

DIGSA [5] = assay: Post-emergence herbicidal action against DIGSA; format: in vivo, Digitaria sanguinalis
In short: as §2

AMARE [6] = assay: Pre-emergence herbicidal action against AMARE; format: in vivo, Amaranthus retroflexus; details: for pest or weed control at 20 g/ha / pest or weed control at 80 g/ha: Amaranthus retroflexus, 504 h
In short: as §1

PHBPU [7] = assay: Post-emergence herbicidal action against PHBPU; format: in vivo, Pharbitis purpurea
In short: as §2

VIOTR [8] = assay: Post-emergence herbicidal action against VIOTR; format: in vivo, Viola tricolor; details: 20 g/ha
In short: as §2

MATIN [9] = assay: Post-emergence herbicidal action against MATIN; format: in vivo, Matricaria inodora
In short: as §2

VIOTR [10] = assay: Pre-emergence herbicidal action against VIOTR; format: in vivo, Viola tricolor
In short: as §1

ALOMY [11] = assay: Post-emergence herbicidal action against ALOMY; format: in vivo, Alopecurus myosuroides; details: dosage 20 g/ha, visual assessment about 3 weeks after treatment vs untreated controls
In short: as §2

ALOMY [12] = assay: Pre-emergence herbicidal action against ALOMY; format: in vivo, Alopecurus myosuroides; details: pre-emergence
In short: as §1

DIGSA [13] = assay: Pre-emergence herbicidal action against DIGSA; format: in vivo, Digitaria sanguinalis
In short: as §1

ECHCG [14] = assay: Post-emergence herbicidal action against ECHCG; format: in vivo, Echinochloa crus-galli; details: for pest or weed control at 20 g/ha: Echinochloa crus-galli, 504 h
In short: as §2

PHBPU [15] = assay: Pre-emergence herbicidal action against PHBPU; format: in vivo, Pharbitis purpurea; details: dosage 80 g/ha; for pest or weed control at 80 g/ha: Ipomoea purpurea, 504 h
Description: Seeds of monocotyledonous and dicotyledonous weed plants and crop plants are laid out in sandy loam soil in wood-fiber pots and covered with soil. The compounds of the invention, formulated in the form of wettable powders (WP) or as emulsion concentrates (EC), are then applied to the surface of the covering soil in the form of an aqueous suspension or emulsion at a water application rate equivalent to 600 to 800 l/ha, with addition of 0.2% wetting agent. After the treatment, the pots are placed in a greenhouse and kept under good growth conditions for the trial plants. The damage to the test plants is scored visually after a test period of 3 weeks by comparison with untreated controls (herbicidal activity in percent (%): 100% activity=the plants have died, 0% activity=like control plants). […] The tables below illustrate, in an illustrative manner, the post-emergence herbicidal action of the compounds of the invention, the herbicidal activity being stated in percent.

SETVI = assay: Pre-emergence herbicidal action against SETVI; format: in vivo, Setaria viridis
In short: as §1

VERPE [16] = assay: Pre-emergence herbicidal action against VERPE; format: in vivo, Veronica persica; details: dosage 80 g/ha
In short: as §1

ABUTH [17] = assay: Post-emergence herbicidal action against ABUTH; format: in vivo, Abutilon theophrasti; details: Abutilon theophrasti, 504 h, visual assessment about 3 weeks after treatment vs untreated controls
In short: as §2

VERPE [18] = assay: Post-emergence herbicidal action against VERPE; format: in vivo, Veronica persica; details: Veronica persica, 504 h, 20 g/ha
In short: as §2

[19] = 80 g/ha, scored visually after 3 weeks vs untreated controls (100% = plants have died, 0% = like control plants)
[20] = dosage 20 g/ha, scored visually after 3 weeks vs untreated controls, 100% = plants have died, 0% = like control plants
[21] = 20 g/ha, scored visually after 3 weeks vs untreated controls, 100% = plants have died, 0% = like control plants
[22] = 80 g/ha, scored visually after 3 weeks vs untreated controls, 100% = plants have died, 0% = like control plants
[23] = Ipomoea purpurea, 504 h, dosage 20 g/ha
[24] = Viola tricolor, 504 h, dosage 80 g/ha
[25] = Digitaria sanguinalis, 504 h, dosage 80 g/ha
[26] = Setaria viridis, 504 h, dosage 80 g/ha

## CCn1nnnc1NC(=O)c1ccc(C(F)F)c(C(=O)NCC2CC2)c1Br [Example 2-228]
ECHCG [1]
  Pre-emergence action against ECHCG in %: 100%
ABUTH [2]; [19]
  Pre-emergence action against ABUTH (herbicidal activity): 100%
ABUTH [2]; [20]
  Pre-emergence action against ABUTH (herbicidal activity in percent): 100%
AMARE [3]
  Post-emergence action at 20 g/ha against AMARE in %: 90%
AVEFA
  Pre-emergence action against AVEFA in %: 80%
MATIN [4]; dosage 20 g/ha
  Pre-emergence action against MATIN in %: 90%
MATIN [4]; dosage 80 g/ha
  Pre-emergence action against MATIN in %: 100%
DIGSA [5]; 5 g/ha
  Post-emergence action against DIGSA in %: 80%
DIGSA [5]; 20 g/ha
  Post-emergence action against DIGSA: 80%
AMARE [6]; [21]
  Pre-emergence action against AMARE in %: 100%
AMARE [6]; [19]
  Pre-emergence action against AMARE in %: 100%
PHBPU [7]; dosage 20 g/ha
  Post-emergence action against PHBPU in %: 80%
VIOTR [8]
  Post-emergence action against VIOTR in %: 80%
MATIN [9]; dosage 20 g/ha
  Post-emergence action against MATIN in %: 80%
VIOTR [10]; dosage 20 g/ha
  Pre-emergence action against VIOTR in %: 100%
VIOTR [10]; dosage 80 g/ha
  Pre-emergence action against VIOTR in %: 100%
ALOMY [11]
  Post-emergence action against ALOMY in %: 80%
ALOMY [12]; [19]
  Pre-emergence action against ALOMY (herbicidal activity): 80%
DIGSA [13]; dosage 20 g/ha
  Pre-emergence action against DIGSA in %: 100%
DIGSA [13]; dosage 80 g/ha
  Pre-emergence action against DIGSA in %: 100%
ECHCG [14]; dosage 5 g/ha
  Post-emergence action against ECHCG in %: 80%
ECHCG [14]; dosage 20 g/ha
  Post-emergence action against ECHCG in %: 90%
PHBPU [15]
  Pre-emergence action against PHBPU in %: 100%
SETVI; dosage 80 g/ha
  Pre-emergence action against SETVI in %: 90%
VERPE [16]
  Pre-emergence action against VERPE in %: 90%

## CCNC(=O)c1c(C(F)(F)F)ccc(C(=O)Nc2nnnn2C)c1C1CC1 [Example 1-287]
ECHCG [1]
  pest or weed control at 80 g/ha: 90%
ABUTH [2]; [19]
  pest or weed control at 80 g/ha: 100%
ABUTH [2]; [20]
  pest or weed control at 20 g/ha: 100%
ABUTH [17]; dosage 5 g/ha
  pest or weed control at 5 g/ha: 90%
ABUTH [17]; dosage 20 g/ha
  pest or weed control at 20 g/ha: 100%
MATIN [4]; dosage 20 g/ha
  pest or weed control at 20 g/ha: 100%
MATIN [4]; dosage 80 g/ha
  pest or weed control at 80 g/ha: 100%
DIGSA [5]; Digitaria sanguinalis, 504 h, 5 g/ha
  pest or weed control at 5 g/ha: 100%
DIGSA [5]; Digitaria sanguinalis, 504 h, 20 g/ha
  pest or weed control at 20 g/ha: 100%
AMARE [6]; [21]
  pest or weed control at 20 g/ha: 100%
AMARE [6]; [22]
  pest or weed control at 80 g/ha: 100%
PHBPU [7]; Ipomoea purpurea, 504 h, dosage 5 g/ha
  pest or weed control at 5 g/ha: 90%
PHBPU [7]; [23]
  pest or weed control at 20 g/ha: 100%
VIOTR [8]; Viola tricolor, 504 h
  pest or weed control at 20 g/ha: 80%
MATIN [9]; Tripleurospermum inodorum, 504 h, dosage 5 g/ha
  pest or weed control at 5 g/ha: 80%
MATIN [9]; Tripleurospermum inodorum, 504 h, dosage 20 g/ha
  pest or weed control at 20 g/ha: 90%
VIOTR [10]; Viola tricolor, 504 h, dosage 20 g/ha
  pest or weed control at 20 g/ha: 100%
VIOTR [10]; [24]
  pest or weed control at 80 g/ha: 100%
DIGSA [13]; Digitaria sanguinalis, 504 h, dosage 20 g/ha
  pest or weed control at 20 g/ha: 100%
DIGSA [13]; [25]
  pest or weed control at 80 g/ha: 100%
ECHCG [14]; dosage 20 g/ha
  pest or weed control at 20 g/ha: 100%
PHBPU [15]
  pest or weed control at 80 g/ha: 100%
SETVI; Setaria viridis, 504 h, dosage 20 g/ha
  pest or weed control at 20 g/ha: 90%
SETVI; [26]
  pest or weed control at 80 g/ha: 100%
VERPE [18]
  pest or weed control at 20 g/ha: 80%
VERPE [16]; Veronica persica, 504 h
  pest or weed control at 80 g/ha: 90%

## Cc1nnc(NC(=O)c2ccc(C(F)(F)F)c(C(=O)NCC(F)(F)F)c2Cl)o1 [Example 6-120]
ECHCG [1]
  pest or weed control at 80 g/ha: 100%
ABUTH [2]; [19]
  pest or weed control at 80 g/ha: 100%
ABUTH [2]; [20]
  pest or weed control at 20 g/ha: 80%
AMARE [3]; Amaranthus retroflexus, 504 h
  pest or weed control at 20 g/ha: 90%
AVEFA; Avena fatua, 504 h
  pest or weed control at 80 g/ha: 90%
MATIN [4]; dosage 20 g/ha
  pest or weed control at 20 g/ha: 90%
MATIN [4]; dosage 80 g/ha
  pest or weed control at 80 g/ha: 90%
AMARE [6]; [21]
  pest or weed control at 20 g/ha: 100%
AMARE [6]; [22]
  pest or weed control at 80 g/ha: 100%
PHBPU [7]; [23]
  pest or weed control at 20 g/ha: 90%
VIOTR [10]; [24]
  pest or weed control at 80 g/ha: 90%
ALOMY [12]; Alopecurus myosuroides, 504 h, 80 g/ha, scored visually after 3 weeks vs untreated controls (100% = plants have died, 0% = like control plants)
  pest or weed control at 80 g/ha: 90%
ALOMY [12]; Alopecurus myosuroides, 504 h, 20 g/ha, scored visually after 3 weeks, 100% = plants have died, 0% = like control plants
  pest or weed control at 20 g/ha: 80%
DIGSA [13]; [25]
  pest or weed control at 80 g/ha: 90%
ECHCG [14]; dosage 20 g/ha
  pest or weed control at 20 g/ha: 90%
PHBPU [15]
  pest or weed control at 80 g/ha: 80%
SETVI; [26]
  pest or weed control at 80 g/ha: 100%
VERPE [18]
  pest or weed control at 20 g/ha: 80%

Reference: patent US12655116B2, “Substituted isophthalic acid diamides” (Bayer Aktiengesellschaft, priority 2020, dated 2026)
